Reference: patent US20190307754A1, “PDE9 INHIBITORS FOR TREATMENT OF PERIPHERAL DISEASES” (IMARA, INC., priority 2016, published 2019)

Tests used:
PDE1 = PDE1 inhibition assay; type: biochemical
Method: Reactions were initiated by addition of the cyclic nucleotide substrate, and reactions were allowed to proceed for 1 h at room temperature before being terminated through mixing with 20 μL (0.2 mg) yttrium silicate SPA beads (PerkinElmer).

C57Bl/6J mice = assay: Locomotor activity and contextual fear conditioning in C57Bl/6J mice; type: in vivo; conditions: gavage, 5 days
Method: The exposure of both compounds was also evaluated in the plasma, brain, and eye. […] During the treatment period all animals were assessed for contextual fear conditioning and a subset of 7 animals per group was evaluated for locomotor activity. On Day 5, plasma, brain, and eye tissue were collected 30 minutes after dosing from 3 animals per treated group to measure concentrations of test item.

[1] = tested on: K562 erythroleukemic cells; assay: cGMP in cultured K562 cells; type: cell-based; conditions: 16 hours
Method: Hydroxyurea was included as a comparator as it is currently the only FDA approved treatment for this disease (Charache et al., N Engl J Med., 332(20):1317-22. (1995)). One of the proposed mechanisms of action of HU in SCD is that it may generate NO and modulation of intracellular levels of the NO second messenger, cGMP, may represent an effective and cell-specific approach for amplifying intracellular NO-dependent signaling.
K562 cells were cultured at 37° C. in IMDM® to which the required concentrations of test items or dimethyl sulfoxide (DMSO; negative Control) had been added. Plated cells were maintained at 37° C. for 16 hours at the end of which the amount of cGMP was detected by enzyme immunoassay.

[2] = tested on: K562 erythroleukemic cells; assay: HbF in cultured K562 cells; type: cell-based; conditions: 3 days
Method: K562 cells were cultured at 37° C. in IMDM® to which the required concentrations of test items or DMSO (negative control) had been added. Plated cells were maintained at 37° C. for 3 days at the end of which the presence of HbF within cells was detected by flow cytometry.

[3] = tested on: Berkeley sickle cell transgenic mice; assay: HbF positive and sickled red blood cells in Berkeley sickle cell transgenic mice; type: in vivo; conditions: 30 mg/kg/day Compound P3.1 or 100 mg/kg/day HU, gavage, 30 days
Method: This study assessed the effects of chronic dosing (30 day) of Compound P3.1 and HU on HbF and cell sickling in a mouse model of sickle cell disease. Berkeley sickle cell transgenic mice (Hbatm1PazHbbtm1Tow Tg(HBA-HBBs)41Paz/J) were divided into groups of 7 to 8 animals and were dosed once daily, by gavage, for 30 days with either vehicle (PEG:water), 30 mg/kg/day of Compound P3.1, or 100 mg/kg/day of HU. This mouse genotype mimics the genetic, hematologic and histopathologic features that are found in humans afflicted with sickle cell anemia, including irreversibly sickled RBCs, anemia and multi-organ pathology. Blood was collected from treated animals on Day 30 for limited routine hematology as well as derivation of the percent of sickled and HbF positive RBCs and total bilirubin. At termination, the spleen was removed and weighed.

HbSS-Townes mice = assay: Microvascular stasis and hematology in HbSS-Townes mice; type: in vivo
Method: The ability of Compound P3.1 to reduce vaso-occulsion was assessed in HbSS-Townes transgenic sickle mice after transient hypoxia and re-oxygenation. This study assessed the effects of repeated (10 days) oral dosing of Compound P3.1 and HU on microvascular stasis and other hematological markers of sickle cell disease, after transient hypoxia and re-oxygenation, in Townes transgenic sickle mice, a mouse model of sickle cell disease (Hba^tm1(HBA)Tow Hbb^tm2(HBG1,HBB*)Tow/Hbb^tm3(HBG1,HBB)Tow/J). HbSS-Townes mice were divided into groups of 3 mice and were then dosed orally via drinking water with Compound P3.1 at 10 mg/kg/day, Compound P3.1 at 30 mg/kg/day, HU (100 mg/kg/day), or a combination of Compound P3.1 and HU (at doses of 30 and 100 mg/kg/day, respectively) for 10 days. A final group received water containing 0.08% methylcellulose, the vehicle used to prepare the test items, and served as controls. On Day 7 of treatment, the mice were implanted with dorsal skin-fold chambers (DSFC), and on Day 10 of treatment, 20-23 flowing subcutaneous venules in the DSFC window were selected and mapped. After venule selection and mapping, mice were placed in a chamber and exposed to a hypoxic atmosphere (7% O2/93% N2) for 1 hour, after which they were returned to room air. All of the selected venules were re-examined after 1 and 4 hours of re-oxygenation in room air and the number of static (no flow) venules was counted and expressed as percent stasis. On completion of these measurements, blood was collected for clinical pathology with a focus on hematological measures associated with sickle cell disease.

[4] = tested on: TNF-α activated human endothelial cells; assay: Micro-channel PMN adhesion assay under flow (FIG. 9); type: cell-based
Source text: In this study, the effects of Compound P3.1 on PMN adhesion to TNF-α activated human endothelial cell monolayers under flow conditions are investigated. It has been validated in vitro dynamic assay mimics neutrophil recruitment to endothelial cell monolayers under inflammatory conditions (TNF-α activation). In this assay, both control and sickle PMNs adhere to endothelial cells but to different degrees, reflecting in vivo conditions. The human dermal microvascular endothelial cell line HMEC-1 is used in this approach. The potential inhibitory effect of Compound P3.1 is tested in parallel and compared with the effect of HU and other PDE9 inhibitors.
In a first step, the effects of 1 uM Compound P3.1 and 10 uM HU were tested by incubating blood samples from healthy volunteers (n=3-6) (i.e., donors or donor cells) with these molecules.
Adhesion of PMNs from healthy volunteers was assessed under flow conditions, mimicking blood flow, in micro channels (Venaflux, Cellix, Ireland) coated with endothelial cell monolayers cultivated under inflammatory conditions. The adhesion assay was performed with whole fresh blood, previously incubated or not with Compound P3.1, to be closer to the physiological condition of circulation in a person, and to study the interaction between the different blood cells with PMNs.

[5] = tested on: TNF-α activated endothelium; assay: Micro-channel assay of platelet, PMN and RBC binding (FIG. 10); type: cell-based, human; conditions: Compound P3.1 2 or 3 hours, HU 3 hours; bound cells at 30 min
Method: In another assay, using the same method, the reduction of PMN and RBC bindings to TNF-α activated endothelium in a micro channel well was confirmed. Platelet, PMN, and RBC in blood samples from 5 healthy normal volunteers (donors) were labelled with fluorescent dyes. The blood samples were incubated with Compound P3.1 for 2 hours or 3 hours, or HU for 3 hours, prior to running them on micro channels that were previously coated with endothelial cells activated with TNF-α. The % of bound cells was quantified at 30 min. Results are shown in FIG. 10A, FIG. 10B, and FIG. 10C.

[6] = tested on: CD34+ derived red blood cells from SCD subjects; conditions: 5 days
[7] = Compound P3.1 30 mg/kg/day, HU 100 mg/kg/day, or both, 10 days

`C[C@@H]1CN(Cc2ncccn2)C[C@H]1c1nc2c(cnn2C2CCOCC2)c(=O)[nH]1` (single isomer, unassigned) [AF27873] was tested, and the IC50 (PDE1) was 2500 nM, the “conditioned freezing vs vehicle controls” value (C57Bl/6J mice; 10 mg/kg/day) was “significantly (p<0.05) more conditioned freezing” and the “conditioned freezing vs vehicle controls” value (C57Bl/6J mice; 30 mg/kg/day) was “not observed”.

`NC(=O)NO` [Hydroxyurea, reference compound] was tested, and the “effect on cGMP levels” value [1] was “dose-dependent and statistically significant increases in cGMP levels”, the HbF positive cells ([2]; 100 μM) was 92.6% and the “effect on HbF-positive cells by concentration” value [2] was “statistically significant increases in HbF-positive cells at concentrations of 10 μM and above (but not at 1 and 3 μM)”. For the same compound, the “RBC count, hemoglobin concentration or hematocrit” value [3] was “not associated with any apparent alterations”, the neutrophil levels [3] was “reduced neutrophil levels” and the spleen weight [3] was “statistically significant decreases”. For the same compound, the total bilirubin [3] was “statistically significant decreases”, the total leucocyte count [3] was “statistically significant decreases” and the “percentage of HbF positive RBCs” value ([3]; vs controls) was “increases in the percentage of HbF positive RBCs”. The “percentage of sickled RBCs” value ([3]; vs controls) was “statistically significant decreases in the percentage of sickled RBCs”, the microvascular stasis (HbSS-Townes mice; 30 mg/kg/day Compound P3.1 or 100 mg/kg HU, drinking water, 10 days, 1 and 4 hours post hypoxia) was “statistically significant reductions in stasis” and the “total WBC numbers” value (HbSS-Townes mice; Compound P3.1 30 mg/kg/day or HU 100 mg/kg/day, 10 days) was “reduce total WBC numbers”. The “vessel occlusion induced by transient hypoxia and re-oxygenation” value (HbSS-Townes mice; Compound P3.1 30 mg/kg/day, HU 100 mg/kg/day, or both) was “effectively reduced”, the “number of HbF positive red cells” value (HbSS-Townes mice; [7]) was “increase the number of HbF positive red cells” and the “proportion of sickled RBCs” value (HbSS-Townes mice; [7]) was “reduce the proportion of sickled RBCs”. The “adhesion of high-binding donor cells” value ([4]; 1 uM Compound P3.1 or 10 uM HU, whole blood of healthy volunteers) was “reduced the binding of 2 of 3 of the high binding donors”, the “toxicity to donor samples” value ([4]; 10 uM HU) was 3 of 9 of the donor samples did not survive HU treatment and the platelet binding [5] was “did not impact platelet binding”. The “amount of HbF within cells (mean MFI)” value ([6]; 30 μM HU, remaining 3 subjects) was 19,383, the “mean MFI of HbF relative to controls” value ([6]; 30 μM HU, remaining 3 subjects) was 258% and the “percentage of HbF positive CD36+ cells (mean)” value ([6]; 30 μM HU, remaining 3 subjects) was 23.9%. For the same compound, the cell death ([6]; human, 30 μM) was “greater than 80%” and the viability ([6]; human, 30 μM) was less than 80%.
